Results taken from patent US20060135587A1, “Method and compounds for promoting healing and reducing inflammation” (priority 2002, published 2006).

Tests used:
[1] = test system: acute Con A-induced inflammation; assay: Acute Con A-induced inflammation (paw oedema) in mice; format: in vivo
Procedure: Saline solution was similarly administered to the control animals. There were 10 mice in each group. After one hour, con A at a dose of 100 mkg/20 g of body weight was administered by sub-plantar injection into the plantar aponeurosis of the left paws of mice of both the experimental and control groups. The same amount of saline splution was injected into the contralateral paws. After one hour, the mice were killed and the experimental and control paws were weighed to assess the reaction index of the inflammation in the ankle-joint (Liubimov et al, 1999).
The anti-inflammatory effect of Compound 2 and Compound 7 was compared in male mice weighing 18-22 g, using the model described in Example 9. The ED50, i.e. the dose reducing paw ooedema by 50% one hour after injection of Concanavalin A, was calculated.

[2] = test system: lesions of the gastric mucosa; assay: Gastric lesions induced by electrostimulation of immobilised rats; format: in vivo
Procedure: (§1) The models used gastric ulcers induced by
a) Electrostimulation of immobilised rats for 3 hours;
(§2) The compounds were administered intraperitoneally at a dose of 20 mg/kg; in the cryogenic ulcer model compound 2 was administered either intraperitoneally (10 mg/kg) or orally (20 mg/kg twice daily, ie. a total of 40 mg/kg/day) and was compared to orally-administered gastrocepin (1 mg/kg twice daily, ie. a total of 2 mg/kg/day).

[3] = test system: lesions of the gastric mucosa; assay: Gastric lesions induced by immobilization and hypothermia; format: in vivo, rats; parameters: % reduction of degree of ulceration / % reduction of ulcerated area: concentration or dose not given beside the values; details: Protective effect, 30 minutes before the test
Procedure: as §1
b) Immobilization and hypothermia (induced by water cooling);
as §2

[4] = test system: cryogenic ulcer of the gastric mucosa; assay: Cryogenic gastric ulcer in rats; format: in vivo; details: healing effect over the course of 14 days; regimen not printed in the row
Procedure: as §1
c) Ulcer created by local wounding with a cryogenic probe using a method similar to that described above for mouth ulcers.
as §2

white male mice = details: for LD50: intraperitoneal injection, white male mice, 14 days observation
Procedure: The acute toxicity of 1,3-dialkyl-4,5-bis (N-methylcarbamoyl)imidazolium salts was assessed following intraperitoneal injection into 200 white male mice weighing 18 to 20 g. Dead animals were counted daily after the administration of the test substance.

[5] = test system: regeneration of liver after partial hepatectomy; assay: Liver regeneration after partial hepatectomy in rats; format: in vivo
Procedure: Partial hepatectomy was performed using the conventional method (Higgins and Anderson, 1931) by removing the left lateral and central lobes of the liver from 80 male white rats, weighing 180-200 g.
Compound 2, Compound 4, Compound 5 or Compound 6 was administered to the experimental groups intraperitoneally in equimolar doses of 0.1 mM/kg and 0.2 mM/kg. These optimal doses were determined in preliminary experiments. The control group received intraperitoneal injections of saline solution. The compounds were administered on the day after the operation and then one injection was given daily over the course of 7 days, since maximum growth of the liver mass in rats is observed in the first 7 days after partial hepatectomy (Solopaev, 1980).
The effectiveness of the compounds was compared to that of a combination of non-steroid anabolic regeneration stimulators which are used in the treatment of liver pathology, namely Riboxin and potassium orotate at a dose of 0.2 mM/kg each (Rychnev and Frolov, 1984).
For quantitative evaluation of the regeneration process in the liver the coefficient of regeneration completion as determined by the formula below was used: [formula] where
Stimulation of the regeneration of tissue after hepatectomy in response to different medicinal preparations is associated with an increase in the synthesis of nucleic acids, as indicated by the increase in the content of RNA and DNA in the regenerated tissue. Quantitative analysis of DNA and RNA was performed by centrifugation. […] The enzymic component of anti-oxidant protection was also assessed on the basis of the activity of catalase and superoxidedismutase (SOD).
5 ml of […] of HCIO4 solution were added to the sample (100 mg). In order to ensure complete sedimentation of the acid-insoluble fraction, the beakers were put in ice for 15 minutes. Then they were centrifuged for 10 minutes at 5000 revolutions per minute. The sediment was washed twice with 0.2 M HCIO4. After the final centrifugation, the walls of the beaker were carefully dried with gauze and filter paper. The sediment was ground down with a glass pestle, suspended in 1 ml of water and then 1 ml of 0.6 M KON solution was added at room temperature. Hydrolysis was performed over the course of 1 hour at 37° C., then the beakers were put in ice to stop the hydrolysis process. 4 ml of the 0.6 M solution were added to each beaker and the beakers were left in ice for another 15 minutes, then centrifuged for 15 minutes at 5000 revolutions per minute. The supernatant was used to determine the RNA by UV absorption at 260 nm and 290 nm compared to the control sample containing 0.4M of HCIO4). The amount of RNA in μg per 1 ml of the supernatant was calculated using the following formula: [formula] where C=is the RNA concentration (μg/ml)
DNA analysis was carried out on the sediment remaining after the alkaline hydrolysis used to determine RNA. 0.5 M of HCIO4 (5 ml per sample) was poured into the dried beaker containing the sediment. Hydrolysis was performed in a boiling water bath for 20 minutes. The amount of DNA in μg per 1 ml of the hydrolysate was calculated using the following formula: [formula] where C=is the DNA concentration (μg/ml). Catalase Activity
Catalase activity was determined using the permanganate method. The optimal amount of the substrate (3 ml of 1% H2O2) and 1 ml of the enzyme were added to 10 ml of phosphate buffer, pH 7.8. After 10 minutes the reaction was stopped by adding 1.5 ml of H2SO4 (50%). The remaining hydrogen peroxide was filtered with 0.1M of KMnO4 solution. Catalase activity was calculated on the basis that 1 ml of 0.1M of KMnO4 solution corresponds to […] of H2O2.
SOD activity was determined using the dianisidine method, which is based on the fact that under ultraviolet irradiation Riboflavin (Rb) is converted to an excited (ionised) state and therefore becomes able to attack reduced dianisidine (DH2). […]

[6] = test system: liver after partial hepatectomy; assay: Morphological study of the liver after partial hepatectomy; format: in vivo, rats; details: 0.2 MM/kg; one week after hepatectomy
Procedure: Morphological methods are highly informative in the assessment of repair processes. Histological tests of the liver after partial hepatectomy were performed using generally accepted methods. Microscopic sections were stained with hematoxylin and eosin using Van Gieson's methodology. Liver tests after partial hepatectomy were performed on 8 groups of animals, totalling 37 rats. All animals were examined one week after hepatectomy.

[7] = test system: neurogenic dystrophy of the myocardium; assay: Myocardial infarction model (electrostimulation), enzymes in rabbit myocardium; format: in vivo, rabbits; details: 5 mg/kg; 48 hours after electrostimulation
Source text: The effect of Compound 2 on myocardial tissue in an experimental model of myocardial infarction was examined. In this model system neurogenic dystrophy of the myocardium was induced in rats or rabbits by electrical stimulation of the reflexogenic zone of the aortic arch by implanted electrodes for a period of three hours. […] These changes are accompanied by changes in biochemical indicators such as creatine phosphate, cAMP, and calcium ion concentrations, and changes in the activity of redox enzymes such as succinate dehydrogenase, lactate dehydrogenase, and glucose-6-phosphate dehydrogenase. At a later stage organic lesions of the myocardium such as necrotic and fibrosclerotic foci can be observed.
The effect of Compound 2 given intraperitoneally or orally on these indicators was examined in rats and rabbits following electrostimulation as described above. The effects on levels of creatine phosphate in rat myocardial are shown in Table 19, and the effects on adenosine triphosphatase (ATPase), succinate dehydrogenase and glucose-6-phosphate dehydrogenase rabbit myocardium are shown in Table 20. The effects on cAMP and Ca^++ levels in rabbit myocardial tissue are shown in FIG. 5, and effects on creatine kinase in rabbit myocardium and blood and the levels of creatine phosphate in myocardium are shown in FIG. 6.

[8] = test system: cryogenic injuries of the sigmoid colon; assay: Cryogenic damage of the colon, model of ulcerative colitis; format: in vivo, rats; details: day 7; oral; Methyl uracil 180 mg/kg, Potassium orotate 50 mg/kg + Riboxin 50 mg/kg, Sulfasalazine 2 g/kg; one figure for the comparison agents
Procedure: A model of cryogenic damage of the colon was used in this experiment to simulate ulcerative colitis. Cryogenic injuries of the sigmoid colon of rats were induced by pressing a metal rod of […] in diameter cooled in liquid nitrogen to the serous membrane of the colon for 10 seconds under ether anaesthesia.
Tests were performed on 67 male rats weighing 180-200 g, with 8 animals in each group. Animals were kept in separate cages, with normal food and water ad libitum. The test compounds were administered orally on the second day after the operation, and then daily until healing was complete. Compound 2 or Compound 6 was administered to test animals at a dose of 20-50 mg/kg. The following agents were used for comparison:
The nature of the healing of the ulcer injury was examined morphologically on days 1, 3 and 7. […] The inflammatory process extends beyond the injured area into the adjacent areas, and beyond the peritoneum into fatty connective tissue.

myocardial infarction = assay: Clinical comparison of Compound 2 and Riboxin in subacute myocardial infarction (Example 25); format: in vivo, human
Procedure: A total of 94 patients were examined; of these:
Conventional therapy as for example 24 was given to 30 patients. Each patient continued to receive the treatment which s/he had been given prior to commencement of the trial. Compound 2 was administered in addition to the previous treatment.
All the patients underwent standard laboratory tests prior to commencement of Compound 2 therapy, 14 days after the beginning of the course and upon completion of the course. The tests included clinical blood analysis; general urine analysis; evaluation of creatinine, bilirubin, transaminase activity, blood sugar, cholesterol and β-lipoproteins, malonic dialdehyde, Schiff bases, zinc, iron, copper, plasma potassium and sodium, prothrombin and fibrinogen; and an ECG examination in dynamics.
All the patients received conventional therapy, i.e. nitrates, anticoagulants and/or hypotensive agents as appropriate.
Combination therapy included Compound 2 (1st group—32 patients) or Riboxin (2nd group—18 patients). The agents were administered at a dose of 200 mg three times per day.

[9] = Table 3, 50 mg/kg intra-peritoneally one hour before Con A, male CBA mice
[10] = Healing effect over the course of 3 days
[11] = Protective effect, 30 minutes before the test
[12] = Table 4, 0.005M dose (Compound 2 19 mg/kg, Compound 7 16.4 mg/kg) + Con A
[13] = Table 4, 0.01M dose (Compound 2 38 mg/kg, Compound 7 32 mg/kg) + Con A
[14] = Table 4, 0.015M dose (Compound 2 57 mg/kg, Compound 7 49 mg/kg) + Con A
[15] = Table 4, 0.02M dose (Compound 2 76 mg/kg, Compound 7 65.6 mg/kg) + Con A
[16] = 200 mg three times per day plus conventional therapy

1,3-dimethyl-4,5-bis(N-methylcarbamoyl)-imidazolium benzenesulfonate [Compound 1]
Reaction index (%) ([1]; Table 3, 10 mg/kg intra-peritoneally one hour before Con A, male CBA mice): 14.6 ± 3.5% | Reaction index (%) [1, 9]: 5.3 ± 2.0 % | % reduction of degree of ulceration [2, 10]: 18% | Average number of lesions per animal [2, 10]: 2.8 ± 0.7 | % reduction of degree of ulceration [2, 11]: 0% | % reduction of ulcerated area [2, 11]: 0% | Area of lesion [2, 11]: 15.0 ± 4.7 | Average number of lesions per animal ([2]; Protective effect, 30 minutes before the test, 20 mg/kg intraperitoneally): 7.0 ± 0.7 | % reduction of degree of ulceration [3]: 0% | % reduction of ulcerated area [3]: 0% | Area of lesion [3]: 10.1 ± 1.4 | Average number of lesions per animal ([3]; 20 mg/kg intraperitoneally): 10.2 ± 1.2 | % reduction of degree of ulceration [4]: 53% | Average number of lesions per animal [4]: 8.8 ± 1.9 | toxicity (white male mice): very low toxicity | LD50 (white male mice): 1833 mg/kg

1-methyl-3-ethyl-4,5-bis(N-methylcarbamoyl)-imidazolium 2,4-dihydroxybenzoate [Compound 7]
Paw oedema reduction (%) [1, 12]: 60% | Reaction index (%) [1, 12]: 6.73 ± 2.2% | Paw oedema reduction (%) [1, 13]: 13% | Reaction index (%) [1, 13]: 9.93 ± 2.8% | Paw oedema reduction (%) [1, 14]: 45% | Reaction index (%) [1, 14]: 7.2 ± 1.8% | Paw oedema reduction (%) [1, 15]: 70% | Reaction index (%) [1, 15]: 4.9 ± 1.7% | ED50, dose reducing paw oedema by 50% one hour after injection of Concanavalin A ([1]; male mice): 52 mg/kg | toxicity (white male mice): very low toxicity | LD50 (white male mice): 1221 mg/kg

CC[n+]1cn(C)c(C(=O)NC)c1C(=O)NC.O=C([O-])c1ccccc1 [Compound 5, 1-methyl-3-ethyl-4,5-bis(N-methylcarbamoyl)-imidazolium benzoate]
Reaction index (%) [1, 9]: 7.2 ± 1.8 % | Catalase E activity ([5]; 0.2 mM/kg): 17.3 ± 2.6 μgM/min/g tissue × 1000 | DNA content (in mg/g of tissue) ([5]; 0.2 mM/kg): 3.76 ± 0.29 mg/g of tissue | Protein content ([5]; 0.2 mM/kg): 86.8 ± 6.9 Mg/g tissue | RNA content (mg/g of tissue) ([5]; 0.2 mM/kg): 7.46 ± 0.14 mg/g of tissue | SOD activity ([5]; 0.2 mM/kg): 103.0 ± 4.4 Units/g tissue | Level of recovery ([5]; 0.2 mM/kg intraperitoneally, 7 days, hepatectomy alone = 100): 120.3 | histological findings in the liver [6]: some of the animals demonstrated hepatocyte hypertrophy combined with subacute hepatitis

CCn1cnc(C(=O)NC)c1C(=O)NC [Ethimizol, 1-ethylimidazole-4,5-dicarboxylic acid bis-N-methylamide, reference compound]
ATPase [7]: 0.43 ± 0.11 µM/mg/min | Glucose-6-phosphate dehydrogenase (optical density units) [7]: 5.8 ± 0.7 optical density units | Succinate dehydrogenase (optical density units) [7]: 39.7 ± 7.4 optical density units

Cc1cc(=O)[nH]c(=O)[nH]1 [Methyl uracil, reference compound]
animals demonstrating complete healing [8]: 18%

OC[C@H]1O[C@@H](n2cnc3c(O)ncnc32)[C@H](O)[C@@H]1O [Riboxin, inosine, reference compound]
cholesterol levels (myocardial infarction; [16]): 85.5% | level of prothrombin (myocardial infarction; [16]): 88.7% | ejection fraction (myocardial infarction; 200 mg three times per day plus conventional therapy, 54.4±1.5% in the absence of the agent): 56.8±1.3% | superoxide dismutase levels (myocardial infarction; after therapy, 18-20 before treatment, norm 23): 21.5 conventional units | level of Schiff bases (myocardial infarction; after therapy, 75 before treatment, normal 60): 62.6 conventional units | cases in which cicatrisation took place one or two days earlier (myocardial infarction; patients with repeated myocardial infarct): 12%

O=C(O)c1cc(/N=N/c2ccc(S(=O)(=O)Nc3ccccn3)cc2)ccc1O [Sulphasalazine, Sulfasalazine, reference compound]
animals demonstrating complete healing [8]: 18%
